Reference: paper PMC3475717, “A Spiroligomer α-Helix Mimic That Binds HDM2, Penetrates Human Cells and Stabilizes HDM2 in Cell Culture” (PLoS ONE, 2012)
Values joined by “and” are separate entries in the source; they are usually repeats but may differ in a detail not shown here. Identical values can stand only once.

Molecular target: T1, HDM2_25–117 (Homo sapiens, UniProt Q00987)
T1 construct: unnamed fusion partner ('fusion protein'); made in house; host or cells: E. coli BL21
Assay: direct binding fluorescence polarization assay
Conditions: for fluorescence polarization: oligomer 10 nM, three independent replicates
Procedure: To measure the binding affinity of the functionalized spiroligomers to HDM2 we utilized a direct binding fluorescence polarization assay. The binding of the fluorescein labeled spiroligomers was measured at 10 nM spiroligomer in the presence of varying concentrations of HDM2_25–117 [31]. […] The initial screen of spiroligomers including 3–7 was carried out on the spiroligomer backbone containing all (S) stereochemistry to identify appropriate functional groups to mimic the side chains of Phe19, Trp23 and Leu26 of the p53 helix.
HDM2 Protein Expression. A fusion protein consisting of residues 1-140 (the plasmid was a generous gift from the lab of Neil Zondlo, University of Delaware) was prepared by over-expression.4 Plasmids were used to transform chemically competent E-coli BL21 Cells (Novagen), and a single colony was used to inoculate 2×4 mL LB media culture tubes containing 0.1 mg/mL ampicillin, at 37 °C overnight. These overnight cultures were used to inoculate a 1 L culture of TB media containing 0.1 mg/ml ampicillin. The culture was incubated at 37 °C with shaking at 250 rpm until the optical density at 600 nm reached to 0.9 absorbance units. Protein overexpression was then induced by the addition of 20% isopropyl β-D-thiogalactoside (IPTG) to 0.4 mM final concentration. The culture was then grown for additional 5 hours at 30 °C. Then cells were harvested at 4 °C by centrifugation at 4500 rpm for 20 min.
The cell pellet was resuspended in chilled 1x Binding Buffer (0.5 M NaCl, 20 mMTris-Hcl, 5 mM imidazole, pH 7.9), frozen and stored at -80 °C until protein purification.
Protein Purification. The frozen cell pellet was thawed at 4 °C and lysed by sonication for 2 minutes with 10 sec on and 20 sec off. Cell debris was pelleted by centrifugation for 30 min at 15000 g, 4 °C and the supernatant was filtered through a 0.2 μm syringe filter. A column was prepared using 2 mL Novagen His-Bind suspended resin and resin was washed with 3 volumes DI water. The flow rate maintained was not more than 0.5 ml/min throughout the purification.
The resin was charged with 5 vol 1x Charge Buffer (50 mM NiSO4) and then equilibrated with 3 vol 1x Binding Buffer (5 mM imidazole). After loading the column with prepared extract, the resin was washed with 10 vol 1x Binding Buffer and then with 6 vol 1x Wash Buffer (10 mM imidazole). Protein was then eluted with 6 vol 1x Elution Buffer (1 M imidazole). The eluate was captured in fractions of 0.5 ml. Fractions were assayed with Coomasie blue and desired fractions were combined and dialyzed using spectra/por 6 Dialysis Membranes of 10,000 MWCO (Spectrum Laboratories) in PBS (pH 7.4, 5 mM EDTA and 0.5 mM DTT) for overnight.
The resulting protein was characterized by SDS-PAGE (4-20% gradient gel) for purity analysis and concentrations were measured by UV analysis.
Fresh protein was used immediately for protein binding experiments. […]
Direct Binding Fluorescence Polarization Experiments. Fluorescence polarization experiments were undertaken to assess the ability of spiroligomers to bind HDM2, a protein with hydrophobic cleft that binds the p53 N-terminal helical domain. Fluoresceinated oligomers (conc. of 10 nM) were incubated for 30 minutes at room temperature with sequential dilutions of […]

T1 sequence (Q00987 25-117): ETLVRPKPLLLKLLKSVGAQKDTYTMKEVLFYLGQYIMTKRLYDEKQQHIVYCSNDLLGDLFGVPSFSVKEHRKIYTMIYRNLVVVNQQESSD

For `CC(C)CN1C(=O)[C@@H]2C[C@@]3(CN2C(=O)[C@@]12C[C@H]1C(=O)N(Cc4ccc(Cl)c(Cl)c4)[C@]4(C[C@@H]5C(=O)N[C@@H](CCc6ccccc6)C(=O)N5C4)C(=O)N1C2)NC(=O)[C@@H](CCCCNC(=S)Nc1ccc2c(c1)C(=O)OC21c2ccc(O)cc2Oc2cc(O)ccc21)NC3=O` [Compound 1], the “increase in affinity for HDM2” value (1 versus 9, differing only in the stereocenter of the lysine residue) was ~17 fold, the fluorescence polarization ([hDM2] 0.08106232 nM) was 68. 58 millipolarization and 68. 27 millipolarization and 70. 47 millipolarization and the fluorescence polarization ([hDM2] 0.1621246 nM) was 65. 92 millipolarization and 65. 99 millipolarization and 65. 14 millipolarization. The fluorescence polarization ([hDM2] 0.3242493 nM) was 75. 62 millipolarization and 76. 93 millipolarization and 62. 45 millipolarization, the fluorescence polarization ([hDM2] 0.6484985 nM) was 76. 88 millipolarization and 65. 12 millipolarization and 66. 54 millipolarization and the fluorescence polarization ([hDM2] 1.296997 nM) was 74. 46 millipolarization and 61. 79 millipolarization and 70. 28 millipolarization. The fluorescence polarization ([hDM2] 2.593994 nM) was 69. 71 millipolarization and 64. 6 millipolarization and 67. 34 millipolarization, the fluorescence polarization ([hDM2] 5.187988 nM) was 68. 52 millipolarization and 66. 82 millipolarization and 65. 52 millipolarization and the fluorescence polarization ([hDM2] 10.37598 nM) was 78. 3 millipolarization and 73. 95 millipolarization and 76. 62 millipolarization. For the same compound, the fluorescence polarization ([hDM2] 20.75195 nM) was 75. 45 millipolarization and 72. 99 millipolarization and 76. 91 millipolarization, the fluorescence polarization ([hDM2] 41.50391 nM) was 82. 2 millipolarization and 90. 13 millipolarization and 83. 56 millipolarization and the fluorescence polarization ([hDM2] 83.00781 nM) was 90. 07 millipolarization and 92. 68 millipolarization and 90. 31 millipolarization. For the same compound, the fluorescence polarization ([hDM2] 166.0156 nM) was 123. 93 millipolarization and 122. 78 millipolarization and 128. 68 millipolarization, the fluorescence polarization ([hDM2] 332.0313 nM) was 176. 96 millipolarization and 168. 11 millipolarization and 165. 21 millipolarization and the fluorescence polarization ([hDM2] 664.0625 nM) was 219. 16 millipolarization and 207. 64 millipolarization and 219. 81 millipolarization. The fluorescence polarization ([hDM2] 1328.125 nM) was 249. 64 millipolarization and 254. 41 millipolarization and 260. 31 millipolarization, the fluorescence polarization ([hDM2] 2656.25 nM) was 276. 63 millipolarization and 280. 28 millipolarization and 279. 87 millipolarization and the fluorescence polarization ([hDM2] 5312.5 nM) was 283. 09 millipolarization and 283. 22 millipolarization and 294. 56 millipolarization. The fluorescence polarization ([hDM2] 10625 nM) was 279. 23 millipolarization and 291. 88 millipolarization and 291. 17 millipolarization, the fluorescence polarization ([hDM2] 21250 nM) was 289. 83 millipolarization and 291. 58 millipolarization and 284. 9 millipolarization and the fluorescence polarization ([hDM2] 42500 nM) was 280. 74 millipolarization and 287. 71 millipolarization and 288. 59 millipolarization. The “difference in binding to HDM2” value (epimers 12 and 1) was “four-fold” and the Kd (fluorescein labeled ligand at 10 nM, varying HDM2, read-out: Kd (HDM2)) was 400 nM.
